melting point [°C]	SMILES
138 to 142	N#Cc1cccc(NCC(=O)N2CCC(Cc3ccc(F)cc3)CC2)c1
338 to 339	O=C=Nc1ccc(-c2n[nH]c3c2Cc2ccccc2-3)cc1
135 to 138	Cc1cc2c(c(C)c1NC=O)CC(C)(CI)O2 (configuration not stated)
178 to 180	O=C(O)c1ccccc1C(=O)C=Cc1cc(O)c(O)c([N+](=O)[O-])c1
162	CCCOc1ccn2nc(-c3ccccc3)c(-c3ccc(=O)n(C(C)C)n3)c2c1
127 to 131	COC(=O)c1ccc2sc(C(=O)OC)c(O)c2c1Cl
170 to 173	Cc1cc(SC(C)c2ccc3nc(-c4ccc(C(F)(F)F)cc4)sc3c2)ccc1OCC(=O)O (configuration not stated)
258 to 261	CC(CO)Cn1cnc2c(N)nc3ccccc3c21 (configuration not stated)
180 to 182	COc1cc2c(cc1OC)C(c1ccccc1)=NC(c1cccnc1)C2 (configuration not stated)
126 to 128	CCCOc1ccccc1-c1ccc(C(=O)OC)c(=O)[nH]1
216	c1ccc(-c2ncc(-c3cnc[nH]3)cn2)cc1
> 220	CC(C)CCC(C)NC1=NS(=O)(=O)c2cc(Cl)ccc2N1 (configuration not stated)
154 to 156	Cn1c(-c2cnn(-c3c(Cl)cc(C(F)(F)F)cc3Cl)n2)nc(C#N)c1C#N
105 to 107	CNc1nnc(C(C)(CCl)CCl)s1
112 to 114	CC(CS)C(=O)N1CCC=C1C(=O)O (configuration not stated)
103 to 104	CC(=O)N[C@@H](C)c1ccc(CO)cc1
119 to 120	CCC(C)(C)C(=O)Oc1cccc2ccc(OCCOc3ccc(C(=O)C(=O)OC)cc3)cc12
292 to 294	COc1ccc(C(=O)Nc2nc(-c3cccc(C#N)c3)c(-n3cncn3)s2)cc1
290 to 292	COc1ccc(-c2cnc3[nH]cc(C(N)=O)c3n2)cc1OC
271 to 272	O=C1Nc2cc(Cl)c(Cl)cc2C1=O
156 to 158	COc1ccc2c(c1)CCC(=O)N(C(C)=O)CCCC2=O
270 to 274	C=C(Nc1nc(-c2ccccc2)c(-c2nc3ccccc3c(=O)n2-c2ccc(Cl)cc2)s1)c1ccco1
263 to 265	CC1COc2c(C3CC3)c(F)cc3c(=O)c(C(=O)O)cn1c23 (configuration not stated)

melting point [°C]	SMILES
110 to 111	O=[N+]([O-])c1cn(-c2cncc(F)c2)nc1Cl
48 to 50	C[C@@H](Oc1cc(-c2ncc(C(F)(F)F)cc2F)c(F)cc1Cl)C(=O)O
200	CCOC(=O)CCc1csc2c(C(=O)OCC)c(=O)c3cc(F)c(Cl)cc3n12
132	CCc1nc(SC)nn1-c1ccc(N)cc1
132 to 135	Cc1cc(C)cc(C(=O)c2c(-c3ccc(OCCN(C)C)cc3)oc3ccccc23)c1
125	CCCCc1ccc(OC)c(-c2csc(NC(=O)c3ccc(C(=O)N4CCC(N5CCC(NS(C)(=O)=O)C5)CC4)cc3)n2)c1 (configuration not stated)
186 to 188	Fc1ccccc1CSc1nc2cnccc2[nH]1
82	C[C@H](OCc1cc2cc(Cl)ccc2n1S(=O)(=O)c1ccc2ncsc2c1)C(=O)O
230 to 232	N#Cc1cc(C(F)(F)F)[nH]c1-c1ccc(Cl)c(Cl)c1
84 to 88	Cc1nnc(CNC(=O)[C@H](Cc2ccccc2)NC(=O)OCc2ccccc2)n1-c1ccc(Cl)cc1C(=O)c1ccccc1
154 to 155	Cc1c(C(F)(F)F)noc1NS(=O)(=O)c1cccc2ccccc12
235	O=C1CCCn2c(=O)[nH]c3cccc1c32
105 to 107	O=C(NCCC[C@H]1OC[C@H](c2cccc3cc(OCC4CC4)ccc32)CO1)OCC(F)(F)F
112 to 114	CCOC(=O)C1=C(CO)NC(C)=C(C(=O)OCCOCc2ccccc2)C1c1cccc([N+](=O)[O-])c1 (configuration not stated)
161 to 162	CCc1cccc(C)c1COc1cc(C(=O)N(C)C)cc2c1nc(C)n2C
139 to 140	C#CCN1Cc2cccc3cccc(c23)C1=O
154 to 157	CN(C)CCCNc1ccc(NCCCN(C)C)c2c1C(=O)c1c(O)ccc(O)c1C2=O
153 to 154	Cc1cc(-n2ccc(OCc3ccccc3)cc2=O)sc1C(=O)NCc1ccccc1
117 to 118	O=C(Cc1cccnc1)[N+]1([O-])CCC(C2c3ccc(Cl)cc3CCc3cccnc32)CC1 (configuration not stated)
224 to 225	CCc1nc(NC(=O)c2cc(Br)ccc2O)sc1-c1ccccc1
160 to 161	Fc1cc(F)c(-c2c(F)nc3nncnc3c2F)c(F)c1
167 to 169	COC(=O)C1CCC2(C)C(=CC(=O)C3C2CCC2(C)C(C(=O)OC)CCC32)C1 (configuration not stated)
129 to 135	COC(=O)ON1C(=O)c2ccccc2C1=O

Second part, the compound before the results:

SMILES	melting point [°C]
O=C(O)CCCCOC(c1ccccc1)(c1ccccc1)c1ccccc1	146 to 148
Cc1cc2oc(C(N)=O)cc(=O)c2c(C)c1Cl	> 300
CC(=O)c1cc2c(cc1O)CCCC2	70 to 72
COC(=O)c1nc2cc(Cl)c(Cl)c(Cl)c2c(O)c1C(=O)OC	227 to 228
O=[N+]([O-])c1cc(C2=NOC(c3cc(Cl)cc(Cl)c3)(C(F)(F)F)C2)ccc1-n1cncn1 (configuration not stated)	64 to 72
Cc1ccc(CCN2CCN(c3noc4ccccc34)CC2)c2c1C(C)(C)CC(=O)N2	170
CCCS(=O)c1c2ccccc2nc2c1c(C)nn2-c1ccccn1 (configuration not stated)	125 to 127
COc1ccc(NC(=O)CN2CCC(Cc3ccccc3)CC2)cc1	81 to 83
CCOc1cc(CCC(=O)O)ccc1OCCCc1cn(-c2ccc(C(F)(F)F)cn2)nc1OCC	114 to 115
CC(CCC(=O)O)CC(C)CC(C)C(=O)C=C(O)C(C)CC(C)CC=CC(C)C(O)C(C)C(O)CC1CCC(C)(C2CCC(C)(C(C)O)O2)O1 (configuration not stated)	203
COC(=O)c1ccc(OC)c(Nc2ccccc2)c1	79 to 81
CS(=O)(=O)c1ccc(-c2cccn2-c2ccc(F)c(F)c2)cc1	137 to 139
O=C(COc1cccc2cccnc12)c1ccccc1	124 to 125
C=CCN1C(=O)C(C)(CN2CCN(c3cccc4c3OCCO4)CC2)N=C1c1cccnc1 (configuration not stated)	102 to 105
CC(=O)NCCOc1cc(-c2ccccc2)on1	144 to 145
CN(C)S(=O)(=O)c1ccc(-c2ccccc2)cc1S(=O)(=O)Cl	140 to 143
Fc1ccccc1Cn1nnc2c(NC3CC3)nccc21	245 to 247
CCOC(=O)c1cc(Br)cc2c(=O)cc(-c3cccc(OCc4ccc5ccccc5c4)c3)oc12	211 to 213
C=CCOc1noc2ccc(N3C(=O)C4=C(CCCC4)C3=O)cc12	88 to 89

SMILES	melting point [°C]
O=[N+]([O-])c1ccc(SSc2nc3ccccc3s2)c(C(Cl)(Cl)Cl)c1	97
Cc1ccccc1C(=O)Nc1ccc(C(=O)N2CCCC(N(C)CC#N)c3ccccc32)cc1 (configuration not stated)	227 to 228
Cc1cc(-n2cnnc2)cc(C=O)c1N	250 to 252
CCOC(=O)c1c(N2CCN(C(=O)c3cccs3)CC2)c2cc(Cl)cnc2n(Cc2ccccc2)c1=O	197
COC(=O)c1cc2[nH]nc(N)c2s1	218 to 220
O=C(Nc1ccc(Oc2ccccc2)cc1)N1CCN(c2nccc3ccccc23)CC1	122 to 123
CN1CCC(c2nn(C(=O)c3ccc(F)cc3)c3ccccc23)CC1	132 to 133
CCCSc1ccc([N+](=O)[O-])c(NC(=S)NC(=O)OC)c1	122 to 125
COc1ccc(-c2ccc3c(Br)c(OC)ccc3c2)cc1	172 to 174
O=C1CNCC2c3ccccc3CCN12 (configuration not stated)	119 to 120
CC1CN(c2ccc([N+](=O)[O-])nc2)C1	141 to 143
O=C(Nc1cc2nc(-c3ccc(C(=O)C45CC6CC(CC(C6)C4)C5)cc3)[nH]c2cn1)c1ccccn1	305
CN1CC=C(c2c[nH]c3ccc(C(=O)O)cc23)CC1	249
NCc1ccc(-c2nc(-c3ccc(F)cc3)c(-c3ccncc3)[nH]2)cc1	214 to 215
O=C(Cn1ncc2cc(/C=C/C(c3cc(Cl)c(F)c(Cl)c3)C(F)(F)F)ccc2c1=O)NCC(F)(F)F (configuration not stated)	172 to 175
Cc1ccccc1Nc1c(C(=O)C(C)C)cnc2c(OCCO)cccc12	138 to 140
CC(C)=CC=C(C#N)c1ccccc1	66 to 67
CC(C)c1ccc(-c2nsc(-c3cccc(C(=O)O)c3)n2)cc1	166 to 168
O=C(N1CCCCC1)N1CC(Oc2cccc(C(F)(F)F)c2)C1	50 to 52

SMILES	melting point [°C]
COc1cc(Nc2c(C#N)cnc3cc(C#CCCN4CCN(C)CC4)c(OC)cc23)c(Cl)cc1Cl	165 to 167
NC(=O)c1c(Cl)ccc(Br)c1F	157 to 158
O=C1CCC(c2ccc(F)cc2)c2ccccc2N1 (configuration not stated)	209 to 212
CSc1cc(C(C)(C)C)c(O)c(C(=O)O)c1C	138 to 139
O=C(O)COc1ccc2cc(-c3csc(Cc4c(Cl)cccc4Cl)n3)ccc2c1	205 to 207
C=Cc1ccc(COc2ccc(COC(=O)C(=O)OCC)cc2)cc1	93
N#CCCCC(=NO)c1ccc(Cl)c(Cl)c1	122 to 123
N#CN1C2CCC1CC(c1n[nH]c3ccccc13)C2 (configuration not stated)	201 to 202
CCN1C(=O)Cc2cc(C(=O)c3cccs3)ccc21	158 to 160
Cc1c(C(=O)Nc2ccc(N(CCO)CCO)c(C#N)c2)c2cc(F)ccc2n1CC(=O)O	150 to 153
COc1ccc(-c2nc(C(OC)(C(F)(F)F)C(F)(F)F)[nH]c2-c2ccc(OC)cc2)cc1	129 to 131
COc1cc2cc(-c3cccnc3)cnc2cc1OC	131 to 132
Cc1cc(C)c2c(c1)C(Nc1ncnc(N)n1)CCC2 (configuration not stated)	178 to 180
COc1ccc2c(c1)c(Cc1cc(=O)n(-c3cccc(C)c3)[nH]1)c(C)n2C(=O)c1ccc(Cl)cc1	120 to 122
CC(C)(C)OC(=O)N1CCCN(c2nc3ccccc3[nH]2)CC1	225 to 226
CCOC(=O)c1noc2ccccc12	53 to 55
O=C(O)C1Cc2cc3c(=O)c4ccccc4oc3c(Cl)c2O1 (configuration not stated)	290 to 293
Oc1ccc(O)c2cc3ccccc3cc12	167 to 169
